Square brackets hold non-standard residues; d marks the D form. Side chains are listed from the residue outwards. Peptide text beside a SMILES is read from it. * marks the point of attachment. C18 diacid = O=C(O)CCCCCCCCCCCCCCCCC(=O)*; NMeY = CN[C@@H](Cc1ccc(O)cc1)C(=O)O; Palmitoyl = CCCCCCCCCCCCCCCC(=O)*; αMeF = C[C@](N)(Cc1ccccc1)C(=O)O; Iva = CC[C@](C)(N)C(=O)O; Aib = CC(C)(N)C(=O)O
Legend:
[1] = biological target: T1, human GIPR (Homo sapiens, UniProt P48546); experiment: Reporter assay of human GIPR gene (agonist activity, intracellular cAMP as index); type: cell-based; settings: Cre-luc reporter, hGIPR/CHO-K1 cells, 4 hours
T1 construct: expressed in transfected cells; host or cells: CHO-K1 Cre-luc reporter cells (hGIPR/CHO-K1, also called hGIPR/CRE-LUC/CHO-K1)
T1 sequence (P48546 22-466): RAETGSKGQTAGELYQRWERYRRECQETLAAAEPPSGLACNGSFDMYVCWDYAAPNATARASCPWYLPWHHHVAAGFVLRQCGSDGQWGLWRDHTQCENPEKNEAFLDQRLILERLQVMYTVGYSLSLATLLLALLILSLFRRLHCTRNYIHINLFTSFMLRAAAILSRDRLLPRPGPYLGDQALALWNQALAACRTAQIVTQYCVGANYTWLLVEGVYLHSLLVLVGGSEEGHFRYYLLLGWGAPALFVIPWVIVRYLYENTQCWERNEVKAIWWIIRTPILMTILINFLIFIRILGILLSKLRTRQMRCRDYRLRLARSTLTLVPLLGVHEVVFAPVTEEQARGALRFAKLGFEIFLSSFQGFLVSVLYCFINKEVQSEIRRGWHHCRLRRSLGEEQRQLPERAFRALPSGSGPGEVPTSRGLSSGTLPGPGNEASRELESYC
Source text: Evaluation of Agonist Activity Against Human NPY2R, Human GIPR, and Human GLP-1R Using Change in Intracellular cAMP Concentration as Index
The human GIPR gene having a sequence identical to the sequence of GenBank Accession No. U39231 was cloned into pMSRα-neo vector to prepare hGIPR/pMSRα-neo. This vector was introduced to the Cre-luc reporter cells obtained in (1) to obtain transformants. Next, a cell line induced to express luciferase, i.e., hGIPR/CHO-K1 cells, were selected from the obtained transformants by the addition of GIP.
The hGIPR/CRE-LUC/CHO-K1 cells or the hGLP-1R/Crel cells were inoculated at a cell density of 25 μL/well (5,000 cells/well) to a 384-well white plate (Corning, 3570), and cultured overnight in Ham F12 medium containing 10% fetal bovine serum, 100 U/mL penicillin and 100 μg/mL streptomycin in a CO2 incubator of 37° C. On the next day, a medium containing a test compound was added at a concentration of 5 μL/well to the cells, and the resultant cells were incubated for 4 hours in a CO2 incubator of 37° C. to give the final concentration of 1 μM. SteadyGlo (Promega) was added thereto at a concentration of 30 μL/well, and the mixture was shaken with light shielded. After 30 minutes, the luciferase activity was measured using a plate reader Envision (PerkinElmer). For the GIPR agonist activity, the luciferase activity in the presence of 10 μM GIP was defined as 100%, and the luciferase activity from the addition of DMSO instead of the test compound was defined as 0%. The GIPR agonist activity was calculated with a rise in intracellular cAMP concentration as an index.

[2] = system: male C57BL/6J mouse; experiment: Evaluation of feeding suppressive action in mice; type: in vivo; settings: 30 nmol/kg s.c. once a day for 3 days; 3-days cumulative food consumption vs solvent control
Method: The feeding suppressive activity of a test compound was examined by the method described below.
The test compound was dissolved at a concentration of 30 or 100 nmol/2 mL in a solvent (10% DMSO-containing physiological saline). The test compound solution was subcutaneously administered at a dose of 2 mL/kg to the back of each male C57BL/6J mouse at 8-9 weeks of age (20-26° C., allowed to take food and water ad libitum; raised in the 12-hour bright-12-hour dark cycle). The administration was performed once a day for 3 days. After the administration, the mouse was individually raised in a rearing cage, and given previously weighed food; food consumption for 3 days after the start of administration was measured. The food consumption was calculated by subtracting the amount of remaining food from the weight of the food given on the day of the start of administration. When the food consumption of a control group receiving administration of the solvent alone was regarded as a suppression rate of 0%, the feeding suppressive activity of each test compound was evaluated on the basis of 3-days cumulative food consumption after the start of administration. The food intake suppression rate (%) of the test compound was defined as (Food consumption of the control group−Food consumption of the test compound-administered group)/Food consumption of the control group×100.

EC50 [1] [nM] | Compound | Rate of feeding suppression (%) [2] [%]
0.17 | CC[C@H](C)[C@H](NC(=O)[C@H](C)NC(=O)[C@H](CCCCNC(=O)CNC(=O)CNC(=O)CNC(=O)CNC(=O)CCCCCCCCCCCCCCCCC(=O)O)NC(=O)[C@H](CC(=O)O)NC(=O)[C@H](CO)NC(=O)[C@@H](NC(=O)[C@](C)(Cc1ccccc1)NC(=O)[C@@H](NC(=O)CNC(=O)[C@H](CCC(=O)O)NC(=O)C(C)(C)NC(=O)[C@H](Cc1ccc(O)cc1)NC)[C@@H](C)O)[C@@H](C)O)C(=O)NC(C)(C)C(=O)N[C@@H](CC(C)C)C(=O)N[C@@H](CC(=O)O)C(=O)N[C@@H](CCCCN)C(=O)N[C@@H](CCC(N)=O)C(=O)N[C@@H](CCCNC(=N)N)C(=O)N[C@@H](CCC(N)=O)C(=O)N[C@@](C)(CC)C(=O)N[C@@H](CCC(=O)O)C(=O)N[C@@H](Cc1ccccc1)C(=O)N[C@H](C(=O)N[C@@H](CCCNC(=N)N)C(=O)N[C@@H](Cc1c[nH]cn1)C(=O)N[C@@H](CC(C)C)C(=O)N[C@@H](CC(C)C)C(=O)N[C@@H](CC(N)=O)C(=O)N[C@@H](CCCCN)C(=O)NC(C)(C)C(=O)N[C@H](C(=O)N[C@@H](CCCNC(=N)N)C(=O)N[C@@H](CCC(N)=O)C(=O)N[C@@H](CCCNC(=N)N)C(=O)N[C@@H](Cc1ccc(O)cc1)C(N)=O)[C@@H](C)O)C(C)C [Example 14] (H-[NMeY][Aib]EGT[αMeF]TSDK([Gly-Gly-Gly-Gly-C18 diacid])AI[Aib]LDKQRQ[Iva]EFVRHLLNK[Aib]TRQRY-NH2) | 
0.041 | CCCCCCCCCCCCCCCC(=O)NCC(=O)NCC(=O)NCC(=O)NCC(=O)NCCCC[C@H](NC(=O)[C@H](CC(=O)O)NC(=O)[C@H](CO)NC(=O)[C@@H](NC(=O)[C@](C)(Cc1ccccc1)NC(=O)[C@@H](NC(=O)CNC(=O)[C@H](CCC(=O)O)NC(=O)C(C)(C)NC(=O)[C@@H](N)Cc1ccc(O)cc1)[C@@H](C)O)[C@@H](C)O)C(=O)NC(C)(C)C(=O)N[C@H](C(=O)NC(C)(C)C(=O)N[C@@H](CC(C)C)C(=O)N[C@@H](CC(=O)O)C(=O)N[C@@H](CCCCN)C(=O)N[C@@H](CCC(N)=O)C(=O)N[C@@H](C)C(=O)N[C@@H](CCC(N)=O)C(=O)N[C@@](C)(CC)C(=O)N[C@@H](CCC(=O)O)C(=O)N[C@@H](Cc1ccccc1)C(=O)N[C@H](C(=O)N[C@@H](CCCNC(=N)N)C(=O)N[C@@H](Cc1c[nH]cn1)C(=O)N[C@@H](CC(C)C)C(=O)N[C@@H](CC(C)C)C(=O)N[C@@H](CC(N)=O)C(=O)N[C@@H](CCCCN)C(=O)NC(C)(C)C(=O)N[C@H](C(=O)N[C@@H](CCCNC(=N)N)C(=O)N[C@@H](CCC(N)=O)C(=O)N[C@@H](CCCNC(=N)N)C(=O)N[C@@H](Cc1ccc(O)cc1)C(N)=O)[C@@H](C)O)C(C)C)[C@@H](C)CC [Example 27] (H-Y[Aib]EGT[αMeF]TSDK([Gly-Gly-Gly-Gly-Palmitoyl])[Aib]I[Aib]LDKQAQ[Iva]EFVRHLLNK[Aib]TRQRY-NH2) | −41.6
0.074 | CC[C@H](C)[C@H](NC(=O)C(C)(C)NC(=O)[C@H](CCCCNC(=O)CNC(=O)CNC(=O)CNC(=O)CNC(=O)CCCCCCCCCCCCCCCCC(=O)O)NC(=O)[C@H](CC(=O)O)NC(=O)[C@H](CO)NC(=O)[C@@H](NC(=O)[C@](C)(Cc1ccccc1)NC(=O)[C@@H](NC(=O)CNC(=O)[C@H](CCC(=O)O)NC(=O)C(C)(C)NC(=O)[C@H](Cc1ccc(O)cc1)NC)[C@@H](C)O)[C@@H](C)O)C(=O)NC(C)(C)C(=O)N[C@@H](CC(C)C)C(=O)N[C@@H](CC(=O)O)C(=O)N[C@@H](CCCCN)C(=O)N[C@@H](CCC(N)=O)C(=O)N[C@@H](C)C(=O)N[C@@H](CCC(N)=O)C(=O)N[C@@](C)(CC)C(=O)N[C@@H](CCC(=O)O)C(=O)N[C@@H](Cc1ccccc1)C(=O)N[C@H](C(=O)N[C@@H](CCCNC(=N)N)C(=O)N[C@@H](Cc1c[nH]cn1)C(=O)N[C@@H](CC(C)C)C(=O)N[C@@H](CC(C)C)C(=O)N[C@@H](CC(N)=O)C(=O)N[C@@H](CCCCN)C(=O)NC(C)(C)C(=O)N[C@H](C(=O)N[C@@H](CCCNC(=N)N)C(=O)N[C@@H](CCC(N)=O)C(=O)N[C@@H](CCCNC(=N)N)C(=O)N[C@@H](Cc1ccc(O)cc1)C(N)=O)[C@@H](C)O)C(C)C [Example 30] (H-[NMeY][Aib]EGT[αMeF]TSDK([Gly-Gly-Gly-Gly-C18 diacid])[Aib]I[Aib]LDKQAQ[Iva]EFVRHLLNK[Aib]TRQRY-NH2) | 
0.041 | CCCCCCCCCCCCCCCC(=O)NCC(=O)NCC(=O)NCC(=O)NCC(=O)NCCCC[C@H](NC(=O)[C@H](CC(=O)O)NC(=O)[C@H](CO)NC(=O)[C@@H](NC(=O)[C@](C)(Cc1ccccc1)NC(=O)[C@@H](NC(=O)CNC(=O)[C@H](CCC(=O)O)NC(=O)C(C)(C)NC(=O)[C@@H](N)Cc1ccc(O)cc1)[C@@H](C)O)[C@@H](C)O)C(=O)N[C@@H](CO)C(=O)N[C@H](C(=O)NC(C)(C)C(=O)N[C@@H](CC(C)C)C(=O)N[C@@H](CCC(=O)O)C(=O)N[C@@H](CCCCN)C(=O)N[C@@H](CCC(N)=O)C(=O)N[C@@H](CCCNC(=N)N)C(=O)N[C@@H](CCC(N)=O)C(=O)N[C@@](C)(CC)C(=O)N[C@@H](CCC(=O)O)C(=O)N[C@@H](Cc1ccccc1)C(=O)N[C@H](C(=O)N[C@@H](CCCNC(=N)N)C(=O)N[C@@H](Cc1c[nH]cn1)C(=O)N[C@@H](CC(C)C)C(=O)N[C@@H](CC(C)C)C(=O)N[C@@H](CC(N)=O)C(=O)N[C@@H](CCCCN)C(=O)NC(C)(C)C(=O)N[C@H](C(=O)N[C@@H](CCCNC(=N)N)C(=O)N[C@@H](CCC(N)=O)C(=O)N[C@@H](CCCNC(=N)N)C(=O)N[C@@H](Cc1ccc(O)cc1)C(N)=O)[C@@H](C)O)C(C)C)[C@@H](C)CC [Example 39] (H-Y[Aib]EGT[αMeF]TSDK([Gly-Gly-Gly-Gly-Palmitoyl])SI[Aib]LEKQRQ[Iva]EFVRHLLNK[Aib]TRQRY-NH2) | −49.6
